“And” between values parts separate entries of the source, which are not always exact repeats. Identical values can stand only once.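 Five compound concentrations were applied to cells in 96-well plates for 48 hours; endpoints were derived by simple linear interpolation of the resulting dose-response curve. GI50 = concentration required for 50% inhibition of growth. TGI: total growth inhibition.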
Experiments:
Assay in all cases: NCI-60 cell line screen, 48 h
[1] = tested on: A498 renal
[2] = tested on: HL-60(TB) leukemia
[3] = tested on: OVCAR-5 ovarian
[4] = tested on: SN12C renal
[5] = tested on: HCT-15 colon
[6] = tested on: HOP-62 NSCLC
[7] = tested on: SNB-19 CNS
[8] = tested on: UO-31 renal
[9] = tested on: TK-10 renal
[10] = tested on: BT-549 breast

Row | Structure (SMILES) | TGI [1] | TGI [2] | TGI [3] | TGI [4] | TGI [5] | TGI [6] | TGI [7] | TGI [8] | TGI [9] | TGI [10] | GI50 [2] | GI50 [3] | GI50 [4] | GI50 [5] | GI50 [6] | GI50 [7] | GI50 [8] | GI50 [9] | GI50 [10] | GI50 [1]
1 | COc1cc2c(c(OC)c1OC)C(=O)NCCC2 | > 100 µM | > 63.1 µM | > 100 µM | > 100 µM | > 100 µM | > 100 µM | > 100 µM | > 100 µM | > 100 µM |  |  |  |  |  |  |  |  |  |  | 
2 | COc1cc(N(C)C)c(OC)cc1C=C1C=CC=C1 | > 100 µM | > 100 µM | > 100 µM | > 100 µM |  | > 100 µM | > 100 µM | > 100 µM | > 100 µM | > 100 µM |  |  |  |  |  |  |  |  |  | 
3 | CCOC(=O)[C@@H]1CSC(CC)=C(C(=O)O)N1 |  | > 100 µM | > 100 µM | > 100 µM | > 100 µM | > 100 µM | > 100 µM | > 100 µM | > 100 µM | > 100 µM | > 100 µM | > 100 µM | > 100 µM | > 100 µM | > 100 µM | > 100 µM | > 100 µM | > 100 µM | > 100 µM | 
4 | Cc1ccc(S(=O)C(C)C(Cl)c2ccccc2)cc1 (configuration not stated) | > 100 µM |  | > 100 µM | > 100 µM | > 100 µM | > 100 µM |  | > 100 µM | > 100 µM |  |  |  |  |  |  |  |  |  |  | 
5 | COc1cc(OC)c2c(=O)c3cccc([N+](=O)[O-])c3n(C)c2c1 |  | > 100 µM |  | > 100 µM | > 100 µM |  | > 100 µM | > 100 µM | > 100 µM |  |  |  |  |  |  |  |  |  |  | 
6 | O=C1OC(=O)C([Se]c2ccccc2)=C1[Se]c1ccccc1 | > 100 µM | > 100 µM | > 100 µM | > 100 µM | > 100 µM | > 100 µM | > 100 µM |  | > 100 µM |  |  |  |  |  |  |  |  |  |  | 
7 | C[C@H]1CC[P+](C)(c2ccccc2)C1 (some centres not stated) | > 100 µM | > 100 µM | > 100 µM | > 100 µM | > 100 µM | > 100 µM | > 100 µM | > 100 µM | > 100 µM |  |  |  |  |  |  |  |  |  |  | 
8 | CCOC(=O)c1c(NC(=O)c2ccc(Cl)cc2)sc2c(CN(C)C)c(O)ccc12 | 19.9 µM |  | 57.2 µM | > 100 µM | 5.76 µM | 27.1 µM | 24.8 µM | 25.7 µM | 34.5 µM | > 100 µM |  | 9.1 µM | 14.6 µM | 2.16 µM | 5.58 µM | 5.47 µM | 4.88 µM | 14.5 µM | 13.4 µM | 6.09 µM
9 | CC(O)[C@H](NC(=O)N[C@@H](CC(N)=O)c1nc(N2CCNCC2)no1)C(=O)O (some centres not stated) |  | > 100 µM | > 100 µM | > 100 µM | > 100 µM | > 100 µM | > 100 µM | > 100 µM | > 100 µM | > 100 µM | > 100 µM | > 100 µM | > 100 µM | > 100 µM | > 100 µM | > 100 µM | > 100 µM | > 100 µM | > 100 µM | 
10 | N#CCc1cccc(CC#N)c1Br |  | > 100 µM | > 100 µM | > 100 µM | > 100 µM | > 100 µM | > 100 µM | > 100 µM |  |  |  |  |  |  |  |  |  |  |  | 
11 | O=C1CCC(=O)N1Sc1ccccc1 | > 100 µM | > 100 µM |  | > 100 µM | > 100 µM | > 100 µM | > 100 µM | > 100 µM | > 100 µM |  |  |  |  |  |  |  |  |  |  | 
12 | CCCCCCCCCCCCCCCC[n+]1ccccc1 |  | 1.21 µM | 1.86 µM and 2.93 µM | 1.9 µM | 2.64 µM and 3.61 µM | 2.35 µM and 1.9 µM | 1.9 µM | 2.33 µM and 2.85 µM | 0.518 µM and 1.66 µM |  | 0.326 µM | 0.494 µM and 0.842 µM | 0.563 µM | 1.1 µM and 1.09 µM | 1.05 µM and 0.482 µM | 0.559 µM | 0.795 µM and 1.16 µM | 0.207 µM and 0.432 µM |  | 
13 | CCN(c1ccccc1)[C@H]1C(=O)N(c2ccc([N+](=O)[O-])cc2)[C@H]1c1ccc(OC)cc1 | > 100 µM | > 100 µM | > 100 µM | > 100 µM |  |  | > 100 µM | > 100 µM | > 100 µM |  |  |  |  |  |  |  |  |  |  | 
14 | COc1ccc(C)cc1NC(=S)C#N | > 100 µM | > 100 µM | > 100 µM | > 100 µM | > 100 µM | > 100 µM | > 100 µM |  | > 100 µM | > 100 µM |  |  |  |  |  |  |  |  |  | 
15 | Nc1ccccc1C#Cc1ccccc1C#Cc1cccs1 | 29.5 µM | > 100 µM | 30 µM | 29.1 µM | 33.5 µM | 29.3 µM | > 100 µM | 47.3 µM |  | 32.1 µM | 11 µM | 14.5 µM | 14.5 µM | 13.1 µM | 15.1 µM | 29.9 µM | 19.1 µM |  | 15.9 µM | 15.1 µM
16 | COc1cccc(/C=N\NC(=O)C(C)SC(C)C(=O)N/N=C/c2cccc(OC)c2)c1 (configuration not stated) | 27 µM | > 100 µM | > 100 µM | 42.8 µM | > 100 µM | 33.1 µM | 45.5 µM | > 85.5 µM | 36.6 µM |  |  |  |  |  |  |  |  |  |  | 
17 | C1=CC2CCC1CN2CCC1CNc2ccccc21 (configuration not stated) | > 100 µM | > 100 µM | > 100 µM | > 100 µM |  | > 100 µM | > 100 µM | > 100 µM | > 100 µM |  |  |  |  |  |  |  |  |  |  | 
18 | OCCN(CO)CO | > 100 µM |  |  | > 100 µM | > 100 µM | > 100 µM | > 100 µM | > 100 µM | > 100 µM | > 100 µM |  |  |  |  |  |  |  |  |  | 
19 | Clc1ccc(CN2CCCN(Cc3ccc(Cl)cc3)C2c2cc3ccccc3c3ccccc23)cc1 | 56.5 µM |  | > 100 µM | > 100 µM | > 100 µM | > 100 µM | > 100 µM | > 100 µM | > 100 µM | > 100 µM |  |  |  |  |  |  |  |  |  | 
20 | CSC1=Nc2c(c(C)c(-c3ccccc3)n2COC(CO)CO)C2=NC(=O)CC(C)N12 (configuration not stated) | > 100 µM |  | > 100 µM | > 100 µM | > 100 µM | > 100 µM | > 100 µM | > 100 µM | > 100 µM | > 100 µM |  | > 100 µM | > 100 µM | > 100 µM | 98.1 µM | > 100 µM | > 100 µM | > 100 µM | > 100 µM | > 100 µM
21 | COc1ccc(Br)c(C(=O)N2CCc3ccccc32)c1N |  | > 100 µM | > 100 µM | > 100 µM | > 100 µM | > 100 µM | > 100 µM | > 100 µM | > 100 µM |  |  |  |  |  |  |  |  |  |  | 
